Data on one molecule can be found in ChEMBL document CHEMBL5096191 (J Med Chem, 2021).

Common to all, as to type: functional, cell-based
The target in assay [1] is T1, Cannabinoid receptor 2 (Homo sapiens, UniProt P34972). The assay is described as follows: Partial agonist activity at wild type CB2 receptor (unknown origin) expressed in HEK293T assessed as increase in ERK1/2 phosphorylation incubated for 7 mins by AlphaScreenSureFire method relative to control. As to conditions: filed as partial agonist.
T1 sequence (P34972 whole entry): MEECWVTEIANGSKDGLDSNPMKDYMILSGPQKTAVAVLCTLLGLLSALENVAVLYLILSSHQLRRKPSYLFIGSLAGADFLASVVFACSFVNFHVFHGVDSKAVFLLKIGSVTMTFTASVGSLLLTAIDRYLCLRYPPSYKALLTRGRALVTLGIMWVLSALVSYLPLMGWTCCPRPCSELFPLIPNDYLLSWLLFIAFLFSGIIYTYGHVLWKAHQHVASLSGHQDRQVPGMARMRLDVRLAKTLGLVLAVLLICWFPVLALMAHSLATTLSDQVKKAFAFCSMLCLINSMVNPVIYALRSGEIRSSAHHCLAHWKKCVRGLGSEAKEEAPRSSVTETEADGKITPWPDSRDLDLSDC
The test system of assay [2] is Cannabinoid receptor 2 (Homo sapiens), P34972 [V113M]. Put plainly: Partial agonist activity at CBR2 V1133.32M mutant (unknown origin) stably expressed in HEK293T assessed as decrease in forskolin induced cAMP level preincubated for 15 mins followed by forskolin addition incubated for 15 mins in presence of cannabidiol by HTRF assay relative to control. As to conditions: filed as partial agonist, time 30.0 min. For orientation: Changes in cAMP serve as a functional read-out for many G protein-coupled receptors.
Cannabinoid receptor 2 (Homo sapiens), P34972 [V113M], sequence (P34972 whole entry V113M): as the sequence (P34972 whole entry) above, with V113M counted along it

For assay [3] the test system is unchanged. The assay is described as follows: Partial agonist activity at CBR2 V1133.32M mutant (unknown origin) expressed in HEK293T assessed as increase in ERK1/2 phosphorylation incubated for 7 mins by AlphaScreenSureFire method relative to control. As to conditions: filed as partial agonist.
Assay [4] concerns Cannabinoid receptor 2 (Homo sapiens), P34972 [A282M]. Put plainly: Partial agonist activity at CBR2 A2827.36M mutant (unknown origin) stably expressed in HEK293T assessed as decrease in forskolin induced cAMP level preincubated for 15 mins followed by forskolin addition incubated for 15 mins by HTRF assay relative to control. Conditions: filed as partial agonist, time 30.0 min.
Cannabinoid receptor 2 (Homo sapiens), P34972 [A282M], sequence (P34972 whole entry A282M): as the sequence (P34972 whole entry) above, with A282M counted along it

Assay [5] deals with Cannabinoid receptor 2 (Homo sapiens), P34972 [V36M]. The assay is described as follows: Partial agonist activity at CBR2 V361.35M mutant (unknown origin) expressed in HEK293T assessed as increase in picometer shifts of reflected light wavelengths by DMR assay relative to control. Conditions: filed as partial agonist.
Cannabinoid receptor 2 (Homo sapiens), P34972 [V36M], sequence (P34972 whole entry V36M): as the sequence (P34972 whole entry) above, with V36M counted along it
The target of assay [6] is T1, Cannabinoid receptor 2. Put plainly: Partial agonist activity at wild type CB2 receptor (unknown origin) stably expressed in HEK293T assessed as decrease in forskolin induced cAMP level preincubated for 15 mins followed by forskolin addition incubated for 15 mins by HTRF assay.

Molecules are shown by their SMILES.

Take `CCCC(C)(C)c1cc(O)c2c(c1)OC(C)(C)[C@@H]1CC=C(C)C[C@@H]21`: the Emax – broadly, the size of the effect at its maximum, as opposed to the concentration needed – at Cannabinoid receptor 2 [1] was found to be 322%; in assay [2], 77.8%; in assay [3], 276%; in assay [4], 45.4%; in assay [5], 193%. At Cannabinoid receptor 2 [6], the half-maximal effective concentration (EC50) (as a rule, the concentration at which the effect is half-maximal) is 31.6 nM.
